According to the NIST ThermoML archive (doi:10.1016/j.jct.2018.02.018):

Experiments:
[1] = xn = mol fraction of the nth substance listed; conditions: 100 kPa, Liquid; for speed of sound: Frequency=3 MHz, Single path-length method; for mass density: Vibrating tube method
[2] = refractive index (Na D-line) (dimensionless); xn = mol fraction of the nth substance listed; conditions: 100 kPa, Liquid, Standard Abbe refractometry

CN(C)CCOCCO [2-(2-dimethylaminoethoxy)ethanol] + C[S+](C)[O-]
Conditions	mass density, [1] [kg/m3]	refractive index, [2]	speed of sound, [1] [m/s]
293.15 K, x2 = 0	954	1.442	1403.6
293.15 K, x2 = 0.0984	962	1.444	1410.5
293.15 K, x2 = 0.2001	971	1.447	1417.2
293.15 K, x2 = 0.2995	981	1.449	1423.8
293.15 K, x2 = 0.4021	992	1.452	1431
293.15 K, x2 = 0.4992	1003	1.455	1439.1
293.15 K, x2 = 0.6003	1017	1.458	1448.2
293.15 K, x2 = 0.7006	1033	1.462	1458.4
293.15 K, x2 = 0.795	1051	1.467	1470.1
293.15 K, x2 = 0.8997	1074	1.472	1485.1
293.15 K, x2 = 0.9505	1087	1.476	1494.1
303.15 K, x2 = 0	946	1.438	1369.9
303.15 K, x2 = 0.0984	954	1.44	1377.3
303.15 K, x2 = 0.2001	963	1.443	1384
303.15 K, x2 = 0.2995	972	1.445	1390.2
303.15 K, x2 = 0.4021	983	1.448	1397.7
303.15 K, x2 = 0.4992	995	1.451	1405.5
303.15 K, x2 = 0.6003	1008	1.454	1414.5
303.15 K, x2 = 0.7006	1024	1.458	1425.1
303.15 K, x2 = 0.795	1041	1.462	1436.6
303.15 K, x2 = 0.8997	1064	1.468	1451.1
303.15 K, x2 = 0.9505	1077	1.471	1460.6
313.15 K, x2 = 0	938	1.435	1336.8
313.15 K, x2 = 0.0984	946	1.437	1344.1
313.15 K, x2 = 0.2001	954	1.439	1350.8
313.15 K, x2 = 0.2995	964	1.441	1357.1
313.15 K, x2 = 0.4021	975	1.444	1364.6
313.15 K, x2 = 0.4992	986	1.447	1372.4
313.15 K, x2 = 0.6003	999	1.45	1381.3
313.15 K, x2 = 0.7006	1015	1.454	1391.4
313.15 K, x2 = 0.795	1032	1.458	1403.2
313.15 K, x2 = 0.8997	1054	1.464	1417.6
313.15 K, x2 = 0.9505	1067	1.467	1427
323.15 K, x2 = 0	930	1.431	1303.9
323.15 K, x2 = 0.0984	937	1.433	1311.2
323.15 K, x2 = 0.2001	946	1.435	1318
323.15 K, x2 = 0.2995	955	1.437	1324.2
323.15 K, x2 = 0.4021	966	1.439	1331.8
323.15 K, x2 = 0.4992	977	1.442	1339.5
323.15 K, x2 = 0.6003	991	1.446	1348.4
323.15 K, x2 = 0.7006	1006	1.45	1358.4
323.15 K, x2 = 0.795	1023	1.454	1370.1
323.15 K, x2 = 0.8997	1045	1.459	1384.4
323.15 K, x2 = 0.9505	1057	1.461	1393.6
